According to ChEMBL document CHEMBL1138670, “Prospects for inhibitors of protein tyrosine phosphatase 1B as antidiabetic drugs” (J Med Chem, 2004):
Each block holds one compound with its values, some of them ahead of it.

How the values were obtained:
[1] = biological target: T1, Tyrosine-protein phosphatase non-receptor type 1 (Homo sapiens, UniProt P18031); experiment: Inhibitory activity against Protein-tyrosine phosphatase 1B
T1 sequence (P18031 whole entry): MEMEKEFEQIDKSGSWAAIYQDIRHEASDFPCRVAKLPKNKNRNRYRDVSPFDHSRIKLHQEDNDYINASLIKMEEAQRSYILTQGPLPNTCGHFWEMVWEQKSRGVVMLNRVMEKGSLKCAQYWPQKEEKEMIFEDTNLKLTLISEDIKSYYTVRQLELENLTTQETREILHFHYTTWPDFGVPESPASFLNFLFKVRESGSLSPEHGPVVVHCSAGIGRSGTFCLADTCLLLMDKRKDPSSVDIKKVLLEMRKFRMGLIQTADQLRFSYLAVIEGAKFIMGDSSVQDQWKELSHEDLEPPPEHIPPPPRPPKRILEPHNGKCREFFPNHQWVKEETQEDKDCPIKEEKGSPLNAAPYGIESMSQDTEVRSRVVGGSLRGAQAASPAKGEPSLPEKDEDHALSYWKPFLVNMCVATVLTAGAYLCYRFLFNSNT

[2] = Bioavailability; type: ADME, organism-based; settings: eutheria, in vivo; read-out: Fez
[3] = biological target: T1, Tyrosine-protein phosphatase non-receptor type 1; experiment: Inhibitory activity against Protein-tyrosine phosphatase 1B at pH 5.5
[4] = biological target: T2, Tyrosine-protein phosphatase non-receptor type 1 (Homo sapiens) (UniProt P18031); experiment: Inhibitory concentration for Protein-tyrosine phosphatase 1B
T2 sequence (whole entry): T1 sequence (P18031 whole entry)

SMILES: CCc1cc(CC(NC(C)=O)C(=O)NCCCCC(=O)N[C@@H](CCSC)C(=O)O)ccc1N(C(=O)C(=O)O)c1ccccc1C(=O)O (some centres undefined)
Ki [1]: 77 nM

bioavailability [2]: 13%
SMILES: O=C(c1ccccc1)C(Cc1ccc(C(F)(F)P(=O)(O)O)cc1)c1ccccc1 (centres undefined)

Ki [3]: 18 nM
SMILES: O=C(O)C(=O)Nc1sc2c(c1C(=O)O)CCN[C@H]2CNC(=O)c1cc2cc(F)ccc2[nH]1

Concentration [4]: 5.6 µM
SMILES: CC(C)c1ccc(N2N=C3CSCC=C3C(C#N)=C2N)cc1
